According to US3965105A, “Phenyl-lower-alkylamines” (Sterling Drug Inc., priority 1975, dated 1976):

Key:
[1] = inhibition of carrageenin-induced foot edema test (carrageenin edema, CE); format: in vivo; settings: oral, text: millimoles (μM)/kg.)
Experimental: (§1) Anti-inflammatory activity was determined using (1) the inhibition of carrageenin-induced foot edema test essentially described by […] and (2) a modification of the inhibition of adjuvant-induced arthritis test described by Pierson, J. Chronic Diseases 16, 863 (1963) and Glenn et al., Am. J. Vet. Res. 26, 1180 (1965).
(§2) The phenyl-lower-alkylamines of formula I of the invention have been tested in the carrageenin edema (CE) and adjuvant arthritis (AA) tests and found to have anti-inflammatory activity. Data so-obtained, stated in terms of percent inhibition at a dose expressed in terms of millimoles (μM)/kg.,are given below. All data were obtained on oral administration.

[2] = inhibition of adjuvant-induced arthritis test, modified (adjuvant arthritis, AA); format: in vivo; settings: oral, text: millimoles (μM)/kg.)
Experimental: as §1, §2

| Structure (SMILES) | CE (% Inhib.) ([1]; dose 0.08 (head: mmol/kg) [%] | CE (% Inhib.) ([1]; dose 0.324 (head: mmol/kg) [%] | AA (% Inhib.) ([2]; dose 0.324 (head: mmol/kg) [%] | CE (% Inhib.) ([1]; dose 0.02 (head: mmol/kg) [%] | AA (% Inhib.) ([2]; dose 0.01 (head: mmol/kg) [%] | AA (% Inhib.) ([2]; dose 0.04 (head: mmol/kg) [%] | AA (% Inhib.) ([2]; dose 0.16 (head: mmol/kg) [%] | CE (% Inhib.) ([1]; dose 0.005 (head: mmol/kg) [%] |
| --- | --- | --- | --- | --- | --- | --- | --- | --- |
| CC(C)Cc1ccc(C(C)CN2CCCCC2CC2CCCCC2)cc1 (stereo not drawn) [Example 1, 2-cyclohexylmethyl-1-[2-(4-isobutylphenyl)propyl]piperidine] | 0 | 5 | 75 |  |  |  |  |  |
| CCN(CC)CCCC(C)NCC(C)c1ccc(CC(C)C)cc1 (stereo not drawn) [Example 2, N-[2-(4-isobutylphenyl)propyl]-N-[5-(N',N'-diethylamino)-2-pentyl]amine] | 17 | 39 |  | 0 | 32 | 34 | 63 |  |
| CC(C)Cc1ccc(C(C)CN2C(C)CCCC2C)cc1 (stereo not drawn) [Example 3, 2,6-dimethyl-1-[2-(4-isobutylphenyl)propyl]piperidine] | 0 | 8 | 55 |  |  |  |  |  |
| CC(CN1CCCCC1CC1CCCCC1)c1cccc(Br)c1 (stereo not drawn) [Example 4, 2-cyclohexylmethyl-1-[2-(3-bromophenyl)propyl]piperidine] | 0 |  |  | 4 |  |  |  | 7 |
| CC(CN1CCCCC1CC1CCCCC1)c1ccccc1 (stereo not drawn) [Example 5, 2-cyclohexylmethyl-1-(2-phenylpropyl)piperidine] | 13 |  |  | 16 |  |  |  | 0 |
